{
  "source": "patent US20060121488A1",
  "about": "“Glutamate transport modulatory compounds and methods” (priority 2003, published 2006)",
  "key": {"EAAT2": {"test_system": "EAAT2", "test": "Spinal cord organotypic culture screen for EAAT2 protein expression (slot blot)", "assay_type": "cell-based, rat", "protocol": "Screening Assay for EAAT2 Protein overexpression. […] Organotypic Spinal Cord. […] Briefly, 300 um sections of rat lumbar spinal cord, from postnatal day 8-10 rat pups, are placed on Millipore Millicell CM semipermeable membranes. Each well contains 5 slices (FIG. 2A). […] Each drug (10-100 μM) was added for 3 days, along with cell culture medium/serum. Cultures were harvested and 5-50 μg of tissue was applied to slot blot apparatus for detection of EAAT2 by standard Western blotting/chemiluminescence methods described in the past. […] All antipeptide antibodies were affinity purified and highly specific for transporter subtypes. […] For each antibody slot blot, the homogenates used are expected to be within the linear range for antibody detection, based on prior standard curves. Screening Library-Assay Design. […] The library is composed of 1040 compounds in 96 well plates, that also included positive control for transporter synthesis (dibutyryl cyclic AMP [dbcAMP], GDNF). […] Each compound was studied at a final concentration of 10-100 μM. All assays were performed in duplicate. Data Analysis. All blots were analyzed by laser densitometry (BioRad Image Quant) and the duplicate points were averaged. Each blot included a positive control standard (e.g. dbcAMP) and a negative control standard (e.g. serum, DMSO). […]"}, "[1]": {"test_system": "large ventral horn motor neurons in organotypic spinal cord cultures", "test": "In vitro model of chronic motor neurodegeneration (THA, organotypic spinal cord cultures)", "assay_type": "cell-based, rat", "settings": "THA 100 μM, ceftriaxone 0 to 100 μM, 4 weeks", "protocol": "In vitro model of chronic motor neurodegeneration (FIG. 7B). A model of chronic neurodegeneration was used, based on the blockade of glutamate transport in spinal cord organotypic cultures, with the non specific inhibitor threo-hytdroyxaspartate (THA) or TBOA. Chronic incubation of cultures with THA (or TBOA) leads to chronic increase in extra cellular glutamate and subsequent slow death of motor neurons (over 4 weeks).\nTo determine if drug induced GLT1 promoter activation, and the subsequent over expression of GLT1 protein could be neuroprotective, we used the organotypic spinal cord paradigm. Organotypic spinal cord cultures were prepared from lumbar spinal cords of 8-day-old rat pups, as described previously. […] No drugs were added for the first 7 days following culture preparation. THA was then added to experimental cultures at a concentration of 100 μM, which produces death of motor neurons within 3 to 4 weeks. […] After 4 weeks, cultures were fixed, and immuostained for neurofilament (SMI-32, Sternberger) to quantify large ventral horn motor neurons (a well established method to follow motor neuron survival in this system)."}, "[2]": {"test_system": "cultures prepared from GLT-1 null mice", "test": "Chronic motor neurodegeneration model in cultures prepared from GLT-1 null mice", "assay_type": "cell-based", "settings": "not shown"}, "G93A SOD1 mice": {"test_system": "G93A SOD1 mice", "test": "In vivo neuroprotection in the G93A SOD1 mouse", "description": "Numerous studies have documented a contributory role for excess glutamate in this mouse model- and role for modulating glutamate receptors or transporters in neuroprotective strategies. Guo H., et al. Hum Mol Genet. 2003; 12:2519-2532. Modest over expression—by a transgenic approach—can alter disease onset and/or survival."}, "[3]": {"test_system": "primary cortical mixed neuronal-glial cell cultures", "settings": "1 μM added 48 hours prior to 1 hour OGD; 50% without drug", "protocol": "Method. Primary cortical mixed neuronal-glial cell cultures are prepared from gestation day 14-16 CD1 mice. The preparation of these cultures from mouse fetal cortex is well-described. Experiments are performed at days in vitro 13-15. In the experimental condition, cultures are subjected to oxygen glucose deprivation (OGD), an in-vitro model of ischemia. Cortical cells are either subjected to control treatment (media, modified Earle's balanced salt solution including glucose and bubbled with 5% CO2 95% O2, is changed alongside treatment groups, but no OGD is performed), or 5 minutes (sublethal) of OGD (using modified Earle's balanced salt solution which is devoid of glucose and bubbled with 10% H2, 85% N2, and 5% to deoxygenate). Anaerobic conditions are achieved using an anaerobic chamber at 37° C. OGD is terminated by exchange of media back to oxygenated growing medium. Twenty-four hours following the above, cortical cells are subjected either to no treatment, or one hour of OGD. Neuronal survival is determined by computer-assisted cell counting after staining with the fluorescent vital dyes propidium iodide (as an indicator of neuronal death) and Hoechst 33342 (as an indicator of total number of neurons) and is presented as percent of cell death. Glial nuclei fluoresce at a lower intensity and are gated out. […] Following 1 hour OGD, cells are returned to growing medium without drugs."}, "[4]": {"settings": "200 mg/kg ip from approximately 12 weeks of age"}},
  "data": [
    {"compound": "CO/N=C(\\C(=O)N[C@@H]1C(=O)N2C(C(=O)O)=C(CSc3nc(=O)c(=O)[nH]n3C)CS[C@H]12)c1csc(N)n1", "note": "[ceftriaxone]", "values": [
      {"measurement": "increase of GLT1 protein and function", "setting": "EAAT2; at the concentration used for neuroprotection (Preliminary Data Phases 1 and 2)", "value": "at least 3 fold"},
      {"measurement": "EC50", "setting": "EAAT2; follow-up dose response analysis, spinal cord organotypic cultures", "value": 3.5, "unit": "µM"},
      {"measurement": "motor neuron loss", "setting": "[1]", "value": "prevented motor neurons loss in a dose dependent manner"},
      {"measurement": "neuroprotection in GLT-1 null cultures", "setting": "[2]", "value": "neuroprotection cannot be seen"},
      {"measurement": "duration of strength effect", "setting": "G93A SOD1 mice; [4]", "value": 4, "unit": "weeks"},
      {"measurement": "time after treatment at which strength effect was observed", "setting": "G93A SOD1 mice; [4]", "value": "≤ 7", "unit": "days"},
      {"measurement": "increase in over all survival", "setting": "G93A SOD1 mice; 200 mg/kg ip from approximately 12 weeks of age (disease onset)", "value": "7 to 10", "unit": "days"},
      {"measurement": "loss of muscle strength (grip strength)", "setting": "G93A SOD1 mice; 200 mg/kg ip from approximately 12 weeks of age, preservation lost by 18 weeks of age", "value": "significantly delayed loss of muscle strength"},
      {"measurement": "percentage of neuronal cell death after 1 hour OGD", "setting": "[3]", "value": 20, "unit": "%"}
    ]}
  ]
}
